In the test the test system is Mycobacterium tuberculosis variant bovis. As to the kind of experiment: Antimicrobial activity against Mycobacterium bovis. Type of test: functional.

Consider six compounds from ChEMBL document CHEMBL1944507, “Structure-activity relationships for amide-, carbamate-, and urea-linked analogues of the tuberculosis drug (6S)-2-nitro-6-{[4-(trifluoromethoxy)benzyl]oxy}-6,7-dihydro-5H-imidazo[2,1-b][1,3]oxazine (PA-824)” (J Med Chem, 2012).

As usually defined, the MIC is the smallest concentration in the dilution series that meets the test's criterion for growth inhibition. Read a low MIC as greater potency.

Values after ≈ are worked out from the molar mass of the structure shown.

`O=C(N[C@@H]1COc2nc([N+](=O)[O-])cn2C1)c1ccc(OC(F)(F)F)cc1` had an MIC of 1.34 µM (≈ 0.499 µg/mL).

`O=C(N[C@@H]1COc2nc([N+](=O)[O-])cn2C1)OCc1ccc(OC(F)(F)F)cc1` displayed an MIC of 0.037 µM (≈ 0.0149 µg/mL).

The compound `O=C(Nc1ccc(OC(F)(F)F)cc1)N[C@@H]1COc2nc([N+](=O)[O-])cn2C1` returned an MIC of 0.039 µM (≈ 0.0151 µg/mL).

As for `O=C(Nc1ccc(OC(F)(F)F)cc1)O[C@@H]1COc2nc([N+](=O)[O-])cn2C1`, the MIC came to 0.039 µM (≈ 0.0151 µg/mL).

In turn, `O=C(NCc1ccc(OC(F)(F)F)cc1)O[C@@H]1COc2nc([N+](=O)[O-])cn2C1` displayed an MIC of 0.075 µM (≈ 0.0302 µg/mL).

As for `O=[N+]([O-])c1cn2c(n1)OC[C@@H](OCc1ccc(OC(F)(F)F)cc1)C2` [PRETOMANID], the MIC worked out at 0.167 µM (≈ 0.06 µg/mL).
